Experimental findings from patent US20250368649A1, “TETRAHYDROPYRIDOPYRIMIDINE PAN-KRAS INHIBITORS” (Mirati Therapeutics, Inc., priority 2022, published 2025) are described below.

Test [1] has as its target KRas WT (Homo sapiens, UniProt P01116). The test is described as follows: KRas binding assay (TR-FRET displacement), KRas WT. To be noted: TR-FRET displacement.
The target in test [2] is KRas G12A (Homo sapiens, UniProt P01116, G12A). The test is classed as binding. The settings on record: TR-FRET displacement, read-out: Binding to KRas (IC50 nM) G12A.
Chain of KRas G12A (P01116 1-169 isoform P01116-2 G12A): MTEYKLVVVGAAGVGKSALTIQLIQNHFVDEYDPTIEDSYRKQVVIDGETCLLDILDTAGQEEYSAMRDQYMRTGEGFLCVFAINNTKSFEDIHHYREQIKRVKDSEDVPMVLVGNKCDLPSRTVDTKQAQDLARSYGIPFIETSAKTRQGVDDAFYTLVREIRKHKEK
For test [3], the target named is KRas G12C (Homo sapiens, UniProt P01116, G12C). The test is classed as binding. To be noted: TR-FRET displacement, read-out: Binding to KRas (IC50 nM) G12C. Background: TR-FRET usually uses a lanthanide donor and a delayed reading to cut background.
Chain of KRas G12C (P01116 1-169 isoform P01116-2 G12C): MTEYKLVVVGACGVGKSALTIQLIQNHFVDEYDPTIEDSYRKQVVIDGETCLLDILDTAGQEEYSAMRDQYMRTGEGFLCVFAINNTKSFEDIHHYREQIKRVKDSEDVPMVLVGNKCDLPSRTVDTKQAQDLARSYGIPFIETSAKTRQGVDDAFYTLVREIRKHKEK
In test [4] the target is KRas G12S (Homo sapiens, UniProt P01116, G12S). The test is classed as binding. To be noted: TR-FRET displacement, read-out: Binding to KRas (IC50 nM) G12S.
Chain of KRas G12S (P01116 1-169 isoform P01116-2 G12S): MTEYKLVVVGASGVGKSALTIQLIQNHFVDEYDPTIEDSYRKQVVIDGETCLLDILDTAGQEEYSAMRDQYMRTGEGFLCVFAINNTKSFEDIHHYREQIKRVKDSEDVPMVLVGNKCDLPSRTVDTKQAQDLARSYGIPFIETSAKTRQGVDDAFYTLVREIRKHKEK
Test [5] concerns the target KRas G13D (Homo sapiens, UniProt P01116, G13D). The test is classed as binding. To be noted: TR-FRET displacement, read-out: Binding to KRas (IC50 nM) G13D.
For test [6], the target named is KRas Q61H (Homo sapiens, UniProt P01116, Q61H). The test is described as follows: KRas binding assay (TR-FRET displacement), KRas Q61H. To be noted: TR-FRET displacement.
Chain of KRas Q61H (P01116 1-169 isoform P01116-2 Q61H): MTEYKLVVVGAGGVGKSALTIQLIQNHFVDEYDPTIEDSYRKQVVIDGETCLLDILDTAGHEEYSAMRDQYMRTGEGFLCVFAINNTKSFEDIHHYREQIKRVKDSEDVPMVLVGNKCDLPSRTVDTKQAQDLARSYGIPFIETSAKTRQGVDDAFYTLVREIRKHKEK
Test [7] concerns the target KRas G12D (Homo sapiens, UniProt P01116, G12D). The test is described as follows: biochemical. To be noted: Binding to KRas (IC50 nM) G12D, TR-FRET displacement, KRas G12D.
Test [8] concerns the target KRas G12V (Homo sapiens, UniProt P01116, G12V). The test is described as follows: biochemical. To be noted: Binding to KRas (IC50 nM) G12V, TR-FRET displacement, KRas G12V.

Chain of KRas G12V (P01116 1-169 isoform P01116-2 G12V): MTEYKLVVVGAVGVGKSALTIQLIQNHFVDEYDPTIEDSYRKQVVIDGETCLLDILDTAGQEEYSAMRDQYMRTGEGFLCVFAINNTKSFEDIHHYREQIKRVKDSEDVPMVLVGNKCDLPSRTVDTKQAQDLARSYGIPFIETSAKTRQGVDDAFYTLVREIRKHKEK
Chain of KRas G12D (P01116 1-169 isoform P01116-2 G12D): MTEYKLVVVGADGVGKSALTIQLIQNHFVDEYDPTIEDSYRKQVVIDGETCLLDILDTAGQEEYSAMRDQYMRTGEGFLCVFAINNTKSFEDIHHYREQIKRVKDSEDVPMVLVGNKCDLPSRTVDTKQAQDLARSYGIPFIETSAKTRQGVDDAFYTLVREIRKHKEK
Chain of KRas G13D (P01116 1-169 isoform P01116-2 G13D): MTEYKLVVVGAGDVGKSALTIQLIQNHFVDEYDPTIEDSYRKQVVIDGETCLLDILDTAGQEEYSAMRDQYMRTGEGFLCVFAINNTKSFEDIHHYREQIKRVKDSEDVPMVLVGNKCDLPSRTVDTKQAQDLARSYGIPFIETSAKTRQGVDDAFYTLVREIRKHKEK
Chain of KRas WT (P01116 1-169 isoform P01116-2): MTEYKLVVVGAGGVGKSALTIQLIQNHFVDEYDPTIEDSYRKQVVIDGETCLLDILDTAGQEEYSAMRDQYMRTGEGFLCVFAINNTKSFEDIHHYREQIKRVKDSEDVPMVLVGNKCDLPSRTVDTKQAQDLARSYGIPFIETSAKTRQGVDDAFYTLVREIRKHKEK

In general, IC50 refers to the concentration that inhibits the measured activity by half. For the compound `CCc1cccc2cccc(N3CCc4c(nc(OCC5(CN(C)C)CC5)nc4N4CC(CO)C(c5cncn5C)C4)C3)c12` (centres unmarked) [Example 553, (1-(2-((1-((dimethylamino)methyl)cyclopropyl)methoxy)-7-(8-ethylnaphthalen-1-yl)-5,6,7,8-tetrahydropyrido[3,4-d]pyrimidin-4-yl)-4-(1-methyl-1H-imidazol-5-yl)pyrrolidin-3-yl)methanol], the IC50 turned out to be 5060 nM in test [1]; 2270 nM in test [2]; 1580 nM in test [3]; 3310 nM in test [4]; 7560 nM in test [5]; 7300 nM in test [6]. In addition, the figures for the IC50 in test [7] and in test [8] were 18500 nM and 2760 nM, respectively.

Regarding `CCc1cccc2cccc(N3CCc4c(nc(OCC5(CN(C)C)CC5)nc4NCCc4c(C)n[nH]c4C)C3)c12` [Example 554, N-(2-(3,5-dimethyl-1H-pyrazol-4-yl)ethyl)-2-((1-((dimethylamino)methyl)cyclopropyl)methoxy)-7-(8-ethylnaphthalen-1-yl)-5,6,7,8-tetrahydropyrido[3,4-d]pyrimidin-4-amine], the IC50 in test [1] is 2750 nM; in test [2], 2420 nM; in test [3], 803 nM; in test [4], 1750 nM; in test [5] it was 2660 nM; in test [6] it was 1210 nM. Also, the IC50 in test [7] was found to be 18600 nM; in test [8], 3830 nM.

Regarding `CCc1cccc2cccc(N3CCc4c(nc(OCC5(CN(C)C)CC5)nc4NCCN4CCNC4=O)C3)c12` [Example 555, 1-(2-((2-((1-((dimethylamino)methyl)cyclopropyl)methoxy)-7-(8-ethylnaphthalen-1-yl)-5,6,7,8-tetrahydropyrido[3,4-d]pyrimidin-4-yl)amino)ethyl)imidazolidin-2-one], the IC50 in test [1] worked out at 12200 nM; in test [2] it was 11900 nM; in test [3] it was 9190 nM; in test [4], 15000 nM; in test [5], 16400 nM; in test [6] it was 19700 nM. In addition, the IC50 in test [7] amounted to 19000 nM; in test [8], 6180 nM.

Take `CCc1cccc2cccc(N3CCc4c(nc(OCC5(CN(C)C)CC5)nc4NCc4ncn(-c5ccccc5)n4)C3)c12` [Example 556, 2-((1-((dimethylamino)methyl)cyclopropyl)methoxy)-7-(8-ethylnaphthalen-1-yl)-N-((1-phenyl-1H-1,2,4-triazol-3-yl)methyl)-5,6,7,8-tetrahydropyrido[3,4-d]pyrimidin-4-amine]: the IC50 in test [1] was determined as 22900 nM; in test [2], 26600 nM; in test [3], 16800 nM; in test [4], 26400 nM; in test [5], 31700 nM; in test [6], 44100 nM. Further, the IC50 in test [7] was 19900 nM; in test [8] it was 7060 nM.

With `CCc1cccc2cccc(N3CCc4c(nc(OCC5(CN(C)C)CC5)nc4N4CCOC(c5nccs5)C4)C3)c12` [Example 557, rel-(R)-1-(1-(((7-(8-(dimenaphthalen-1-yl)-4-(2-(thiazol-2-yl)morpholino)-5,6,7,8-tetrahydropyrido[3,4-d]pyrimidin-2-yl)oxy)methyl)cyclopropyl)-N,N-dimethylmethanamine], the IC50 in test [1] amounted to 67900 nM; in test [2], 71600 nM; in test [3], 44300 nM; in test [4], 83200 nM; in test [5], 96200 nM; in test [6], 77100 nM. In addition, the IC50 in test [7] turned out to be 20800 nM; in test [8], 5870 nM.

For `CCc1cccc2cccc(N3CCc4c(nc(OCC5(CN(C)C)CC5)nc4N(C)CCn4ccnc4)C3)c12` [Example 558, N-(2-(1H-imidazol-1-yl)ethyl)-2-((1-((dimethylamino)methyl)cyclopropyl)methoxy)-7-(8-ethylnaphthalen-1-yl)-N-methyl-5,6,7,8-tetrahydropyrido[3,4-d]pyrimidin-4-amine], the half-maximal inhibitory concentration (IC50) worked out at 978 nM in test [1]; 825 nM in test [2]; 492 nM in test [3]; 505 nM in test [4]; 1390 nM in test [5]; 1710 nM in test [6]. The IC50 in test [7] was found to be 23000 nM; in test [8], 2920 nM.

`CCc1cccc2cccc(N3CCc4c(nc(OCC5(CN(C)C)CC5)nc4N4CCCCC(CCOC)C4)C3)c12` (centres unmarked) [Example 559, 1-(1-(((7-(8-ethylnaphthalen-1-yl)-4-(3-(2-methoxyethyl)azepan-1-yl)-5,6,7,8-tetrahydropyrido[3,4-d]pyrimidin-2-yl)oxy)methyl)cyclopropyl)-N,N-dimethylmethanamine]: the IC50 in test [1] came out at 11900 nM; in test [2], 11900 nM; in test [3], 12000 nM; in test [4], 29400 nM; in test [5], 45100 nM; in test [6] it was 23300 nM. Further, the concentration for half-maximal inhibition (IC50) in test [7] worked out at 24700 nM; in test [8], 9180 nM.

Turning to `CCc1cccc2cccc(N3CCc4c(nc(OCC5(CN(C)C)CC5)nc4N(C)CC4CC(F)C4)C3)c12` (centres unmarked) [Example 560, 2-((1-((dimethylamino)methyl)cyclopropyl)methoxy)-7-(8-ethylnaphthalen-1-yl)-N-((3-fluorocyclobutyl)methyl)-N-methyl-5,6,7,8-tetrahydropyrido[3,4-d]pyrimidin-4-amine], the IC50 was 6020 nM in test [1]; 6870 nM in test [2]; 5460 nM in test [3]; 7920 nM in test [4]; 18400 nM in test [5]; 17600 nM in test [6]. For the same compound, the IC50 in test [7] was 24800 nM; in test [8], 3730 nM.

With `CCc1cccc2cccc(N3CCc4c(nc(OCC5(CN(C)C)CC5)nc4NCC4CN(c5ncccn5)C4)C3)c12` [Example 561, 2-((1-((dimethylamino)methyl)cyclopropyl)methoxy)-7-(8-ethylnaphthalen-1-yl)-N-((1-(pyrimidin-2-yl)azetidin-3-yl)methyl)-5,6,7,8-tetrahydropyrido[3,4-d]pyrimidin-4-amine], the IC50 in test [1] is 1280 nM; in test [2], 994 nM; in test [3], 557 nM; in test [4], 536 nM; in test [5], 2190 nM; in test [6], 1740 nM. Further, the values for the IC50 in test [7] and in test [8] were 25700 nM and 6110 nM, respectively.

On to `CCc1cccc2cccc(N3CCc4c(nc(OCC5(CN(C)C)CC5)nc4N4CCOC(c5nnc(C(C)C)o5)C4)C3)c12` (centres unmarked) [Example 562, 1-(1-(((7-(8-ethylnaphthalen-1-yl)-4-(2-(5-isopropyl-1,3,4-oxadiazol-2-yl)morpholino)-5,6,7,8-tetrahydropyrido[3,4-d]pyrimidin-2-yl)oxy)methyl)cyclopropyl)-N,N-dimethylmethanamine], for which the IC50 in test [1] was determined as 10700 nM; in test [2], 7970 nM; in test [3] it was 4270 nM; in test [4], 6600 nM; in test [5] it was 21700 nM; in test [6], 14000 nM. In addition, the values for the IC50 in test [7] and in test [8] were 25900 nM and 6370 nM, respectively.

For `CCc1cccc2cccc(N3CCc4c(nc(OCC5(CN(C)C)CC5)nc4NCc4nnc5c(Cl)cccn45)C3)c12` [Example 563, N-((8-chloro-[1,2,4]triazolo[4,3-a]pyridin-3-yl)methyl)-2-((1-((dimethylamino)methyl)cyclopropyl)methoxy)-7-(8-ethylnaphthalen-1-yl)-5,6,7,8-tetrahydropyrido[3,4-d]pyrimidin-4-amine], the IC50 in test [1] is 776 nM; in test [2], 1370 nM; in test [3], 697 nM; in test [4], 320 nM; in test [5] it was 1040 nM; in test [6], 231 nM. Also, the half-maximal inhibitory concentration (IC50) in test [7] came to 30500 nM; in test [8], 6510 nM.

As for `CCc1cccc2cccc(N3CCc4c(nc(OCC5(CN(C)C)CC5)nc4N4CCN(c5nc(O)cs5)CC4)C3)c12` [Example 564, 2-(4-(2-((1-((dimethylamino)methyl)cyclopropyl)methoxy)-7-(8-ethylnaphthalen-1-yl)-5,6,7,8-tetrahydropyrido[3,4-d]pyrimidin-4-yl)piperazin-1-yl)thiazol-4-ol], the IC50 in test [1] was found to be 6920 nM; in test [2], 11600 nM; in test [3], 8580 nM; in test [4], 14200 nM; in test [5], 7400 nM; in test [6] it was 4380 nM. Further, the results for the IC50 in test [7] and in test [8] were 29500 nM and 3710 nM, respectively.

As for `CCc1cccc2cccc(N3CCc4c(nc(OCC5(CN(C)C)CC5)nc4NCCc4cc(Br)no4)C3)c12` [Example 565, N-(2-(3-bromoisoxazol-5-yl)ethyl)-2-((1-((dimethylamino)methyl)cyclopropyl)methoxy)-7-(8-ethylnaphthalen-1-yl)-5,6,7,8-tetrahydropyrido[3,4-d]pyrimidin-4-amine], the IC50 in test [1] was 13000 nM; in test [2], 12200 nM; in test [3] it was 8620 nM; in test [4], 12900 nM; in test [5], 18900 nM; in test [6] it was 34400 nM. Besides, the results for the IC50 in test [7] and in test [8] were 34300 nM and 6620 nM, respectively.
